# Experimental data reported in patent US10208074B2, “Pyrazole compounds and method for making and using the compounds” (Rigel Pharmaceuticals, Inc., priority 2015, dated 2019).
# Structures can show the parent of a compound that is named as a salt. Where two headings read alike, the source gives them in different places.
# Tests used:
# [1] = tested on: IL-23 (p19/p40); experiment: IL23-p19 ELISA, Dendritic, LPS (compound screening using DC cells); type: cell-based, Human; details: PBMC-derived DC cells, IFNγ primed, LPS 1 μg/ml, 18 hours, 10 pt, read-out: IL23-p19 ELISA, Dendritic, LPS, 10 pt, EC50
# Method in brief: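 Human PBMC-derived dendritic cells (7 d GM-CSF 100 ng/ml + IL-4 20 ng/ml), primed 24 h with IFNγ 50 ng/ml, pre-incubated 1 h with compound, then stimulated 18 h with LPS 1 μg/ml. Supernatant IL-23 measured by p19-capture/p40-detection chemiluminescent ELISA; CellTiter Glo checks cytotoxicity.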
# [2] = tested on: IL-23p19; experiment: LPS induced IL23p19 in THP-1 cells (with IFNγ primed) assay; type: cell-based, Human; details: THP-1 cells, IFNγ primed, LPS 1 ug/mL, 18 hours, 10 pt, read-out: IL23-p19 ELISA, THP1-IFNy, LPS, 10 pt EC50
# Method in brief: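 THP-1 cells primed ~18 h with IFNγ (50 ng/mL), pre-incubated 1 h with compound at 37 °C, then stimulated 18 h with LPS (1 ug/mL final). Supernatant IL-23p19 measured by sandwich ELISA with chemiluminescent read-out; EC50 from curve fitting. Toxicity checked on the remaining cells by Cell Titer Glo.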
"EC50 ([1]; Homo sapiens, 18 h) [nM]","EC50 ([2]; Homo sapiens, THP-1, 18 h) [nM]",SMILES,further results
248,135,"COCCn1cc(NC(=O)c2csc(-c3c[nH]nc3C)n2)c(-c2ccccn2)n1 [II-29, N-(1-(2-methoxyethyl)-3-(pyridin-2-yl)-1H-pyrazol-4-yl)-2-(3-methyl-1H-pyrazol-4-yl)thiazole-4-carboxamide, formic acid salt]",–
–,–,"CCOCCn1cc(NC(=O)c2ccc(-c3cnn(COP(=O)(O)O)c3)o2)c(-c2ccccn2)n1 [Compound I-55, sodium (4-(5-((1-(2-ethoxyethyl)-3-(pyridin-2-yl)-1H-pyrazol-4-yl)carbamoyl)furan-2-yl)-1H-pyrazol-1-yl)methyl phosphate]",EC50 ([1]; phosphate): 801 nM; EC50 ([2]; phosphate): 1200 nM
5450,20800,"Cn1cc(NC(=O)c2csc(-c3cn[nH]c3)n2)c(C(F)(F)F)n1 [II-63, N-(1-methyl-3-(trifluoromethyl)-1H-pyrazol-4-yl)-2-(1H-pyrazol-4-yl)thiazole-4-carboxamide trifluoroacetate salt]",–
19.6,76.7,"CC(C)NC(=O)N1CC(n2cc(NC(=O)c3ccc(-c4cn[nH]c4)o3)c(-c3ccccn3)n2)C1 [Compound I-85, 3-[4-{5-(1H-Pyrazol-4-yl)furan-2-carboxamido}-3-(pyridine-2-yl)-1H-pyrazol-1-yl]-N-isopropylazetidine-1-carboxamide, free base]",–
23,48.3,"CCO[C@H]1CC[C@H](n2cc(NC(=O)c3ccc(-c4cn[nH]c4)o3)c(-c3ccccn3)n2)CC1 [Compound I-130, N-(1-((1r,4r)-4-ethoxycyclohexyl)-3-(pyridin-2-yl)-1H-pyrazol-4-yl)-5-(1H-pyrazol-4-yl)furan-2-carboxamide formate]",–
61.6,49.3,"CC(C)O[C@H]1C[C@@H](n2cc(NC(=O)c3ccc(-c4cn[nH]c4)o3)c(-c3ccccn3)n2)C1 [Compound I-114, N-(1-((1s,3s)-3-isopropoxycyclobutyl)-3-(pyridin-2-yl)-1H-pyrazol-4-yl)-5-(1H-pyrazol-4-yl)furan-2-carboxamide]",–
216,422,"CC(C)n1cc(NC(=O)c2csc(-c3cn[nH]c3)n2)c(-c2ccccn2)n1 [II-59, N-(1-isopropyl-3-(pyridin-2-yl)-1H-pyrazol-4-yl)-2-(1H-pyrazol-4-yl)thiazole-4-carboxamide]",–
–,109,"CCO[C@H]1C[C@@H](n2cc(NC(=O)c3csc(-c4cnn(COP(=O)(O)O)c4)n3)c(-c3ncccc3F)n2)C1 [II-163, (4-(4-((1-((cis)-3-ethoxycyclobutyl)-3-(3-fluoropyridin-2-yl)-1H-pyrazol-4-yl)carbamoyl)thiazol-2-yl)-1H-pyrazol-1-yl)methyl dihydrogen phosphate]",EC50 [1]: 348 nM
362,424,"CC(C)(O)Cn1cc(NC(=O)c2ccc(-c3cn[nH]c3)o2)c(-c2ccccn2)n1 [Compound I-3, N-(1-(2-hydroxy-2-methylpropyl)-3-(pyridin-2-yl)-1H-pyrazol-4-yl)-5-(1H-pyrazol-4-yl)furan-2-carboxamide]",–
48.9,37.3,"O=C(Nc1cn([C@H]2C[C@@H](O)C2)nc1-c1ncccc1F)c1csc(-c2cn[nH]c2)n1 [II-65, N-(3-(3-fluoropyridin-2-yl)-1-((1s,3s)-3-hydroxycyclobutyl)-1H-pyrazol-4-yl)-2-(1H-pyrazol-4-yl)thiazole-4-carboxamide]",–
779,129,"CC(C)(O)Cn1cc(NC(=O)c2csc(-c3cn[nH]c3)n2)c(-c2ccccn2)n1 [II-1, N-(1-(2-hydroxy-2-methylpropyl)-3-(pyridin-2-yl)-1H-pyrazol-4-yl)-2-(1H-pyrazol-4-yl)thiazole-4-carboxamide]",–
331,74.1,"Cc1n[nH]cc1-c1nc(C(=O)Nc2cn(C)nc2-c2ccccn2)cs1 [II-27, 2-(3-methyl-1H-pyrazol-4-yl)-N-(1-methyl-3-(pyridin-2-yl)-1H-pyrazol-4-yl)thiazole-4-carboxamide]",–
23.1,16.6,"O=C(Nc1cn(C2CN(C(=O)C3CC3)C2)nc1-c1ccccn1)c1ccc(-c2cn[nH]c2)o1 [Compound I-89, N-[1-{1-(Cyclopropanecarbonyl)azetidin-3-yl}-3-(pyridine-2-yl)-1H-pyrazol-4-yl]-5-(1H-pyrazol-4-yl)furan-2-carboxamide, formate salt]",–
224,799,"CCO[C@@H]1C[C@H](n2cc(NC(=O)c3ccc(-c4cn[nH]c4)o3)c(-c3ccccn3)n2)C1F (stereo partly drawn) [Compound I-140, N-(1-((1S,3R)-3-ethoxy-2-fluorocyclobutyl)-3-(pyridin-2-yl)-1H-pyrazol-4-yl)-5-(1H-pyrazol-4-yl)furan-2-carboxamide formate]",–
62.2,64.9,"O=C(Nc1cn([C@H]2CC[C@H](O)C2)nc1-c1ccccn1)c1csc(-c2cn[nH]c2)n1 (relative stereo) [II-151, N-(1-((trans)-3-hydroxycyclopentyl)-3-(pyridin-2-yl)-1H-pyrazol-4-yl)-2-(1H-pyrazol-4-yl)thiazole-4-carboxamide]",–
482,112,"O=C(Nc1cn([C@H]2C[C@@H](OCC(F)(F)F)C2)nc1-c1ccccn1)c1csc(-c2cn[nH]c2)n1 [II-161, 2-(1H-pyrazol-4-yl)-N-(3-(pyridin-2-yl)-1-((cis)-3-(2,2,2-trifluoroethoxy)cyclobutyl)-1H-pyrazol-4-yl)thiazole-4-carboxamide]",–
3940,2570,"CCOCCn1cc(NC(=O)c2ccc(-c3c[nH]nc3C(F)(F)F)o2)c(-c2ccccn2)n1 [Compound I-41, N-(1-(2-ethoxyethyl)-3-(pyridin-2-yl)-1H-pyrazol-4-yl)-5-(3-(trifluoromethyl)-1H-pyrazol-4-yl)furan-2-carboxamide formate]",–
3510,4010,"CCOCCn1cc(NC(=O)c2csc(-c3cn[nH]c3C(F)(F)F)n2)c(-c2ccccn2)n1 [II-19, N-(1-(2-ethoxyethyl)-3-(pyridin-2-yl)-1H-pyrazol-4-yl)-2-(5-(trifluoromethyl)-1H-pyrazol-4-yl)thiazole-4-carboxamide, formic acid salt]",–
1250,6290,"CCO[C@H]1C[C@@H](n2cc(NC(=O)c3ccc(-c4cnn(C)c4)o3)c(-c3ccccn3)n2)C1 [Compound I-31, N-(1-((1,3-cis)-3-ethoxycyclobutyl)-3-(pyridin-2-yl)-1H-pyrazol-4-yl)-5-(1-methyl-1H-pyrazol-4-yl)furan-2-carboxamide]",–
10.5,22.6,"O=C(Nc1cn(C2CCOCC2)nc1-c1ccccn1)c1csc(-c2cn[nH]c2)n1 [II-10, 2-(1H-pyrazol-4-yl)-N-(3-(pyridin-2-yl)-1-(tetrahydro-2H-pyran-4-yl)-1H-pyrazol-4-yl)thiazole-4-carboxamide]",–
92.1,144,"CCO[C@H]1C[C@@H](n2cc(NC(=O)c3csc(-c4cn[nH]c4)n3)c(-c3cc(F)ccn3)n2)C1 [II-158, N-(1-((cis)-3-ethoxycyclobutyl)-3-(4-fluoropyridin-2-yl)-1H-pyrazol-4-yl)-2-(1H-pyrazol-4-yl)thiazole-4-carboxamide]",–
–,–,"O=C(Nc1cn(C2CCOCC2)nc1-c1nccs1)c1ccc(-c2cn[nH]c2)o1 [Compound I-65, 5-(1H-pyrazol-4-yl)-N-(1-(tetrahydro-2H-pyran-4-yl)-3-(thiazol-2-yl)-1H-pyrazol-4-yl)furan-2-carboxamide]",EC50 [1]: 199 nM; EC50 [2]: 54.3 nM
1130,589,"CCO[C@H]1C[C@@H](n2cc(NC(=O)c3csc(-c4cn[nH]c4)n3)c(-c3ncccc3C(F)(F)F)n2)C1 [II-89, N-(1-((1,3-cis)-3-ethoxycyclobutyl)-3-(3-(trifluoromethyl)pyridin-2-yl)-1H-pyrazol-4-yl)-2-(1H-pyrazol-4-yl)thiazole-4-carboxamide]",–
1220,18900,"CN1CCN(c2ccc(-c3nn(C)cc3NC(=O)c3ccc(-c4cn[nH]c4)o3)nc2)CC1 [Compound I-106, N-(1-methyl-3-(5-(4-methylpiperazin-1-yl)pyridin-2-yl)-1H-pyrazol-4-yl)-5-(1H-pyrazol-4-yl)furan-2-carboxamide]",–
149,27.1,"O=C(Nc1cn(CC2CC(O)C2)nc1-c1ccccn1)c1csc(-c2cn[nH]c2)n1 (stereo not shown) [II-123, N-(1-(((1r,3r)-3-hydroxycyclobutyl)methyl)-3-(pyridin-2-yl)-1H-pyrazol-4-yl)-2-(1H-pyrazol-4-yl)thiazole-4-carboxamide]",–
157,90.2,"Cn1cc(NC(=O)c2csc(-c3cnn(C(=O)OC4(C)CC4)c3)n2)c(-c2ccccn2)n1 [II-5, 1-methylcyclopropyl 4-(4-((1-methyl-3-(pyridin-2-yl)-1H-pyrazol-4-yl)carbamoyl)thiazol-2-yl)-1H-pyrazole-1-carboxylate]",–
